Assay results as given in patent publication US7674810B2, “1,1-dioxo-1H-1Λ6-benzo[d]isothiazol-3-yl)-4-hydroxy-1,5-dihydro-pyrrol-2-one inhibitors of HCV polymerase” (Roche Palo Alto LLC, priority 2006, dated 2010).

| SMILES | melting point |
| --- | --- |
| COc1cc(CN2C(=O)C(C3=NS(=O)(=O)c4c(CNS(C)(=O)=O)cccc43)=C(O)[C@@H]2C(C)(C)C)ccc1F | 121 to 126 °C |
| CC(C)(C)[C@H]1C(O)=C(C2=NS(=O)(=O)c3ccccc32)C(=O)N1Cc1ccc(F)c(F)c1 | 80 to 89 °C |
| Cc1cc(CN2C(=O)C(C3=NS(=O)(=O)c4c(CNS(=O)(=O)N5CCNCC5)cccc43)=C(O)[C@@H]2C(C)(C)C)ccc1F.O=C(O)C(F)(F)F | 135 to 151 °C |
| CC(C)(C)C1C(O)=C(C2=NS(=O)(=O)c3c(Cl)cccc32)C(=O)N1Cc1ccc(F)cc1 (centres unmarked) | 179 to 213 °C |
| O=C1C(C2=NS(=O)(=O)c3ccccc32)=C(O)[C@H](C2CCCCC2)N1Cc1ccc(F)cc1.[Na] | 235 to 238 °C |
| Cc1nc(S(=O)(=O)NCc2cccc3c2S(=O)(=O)N=C3C2=C(O)[C@H](C(C)(C)C)N(Cc3ccc(F)cc3)C2=O)cn1C.O=C(O)C(F)(F)F | 110 to 116 °C |
| CC(C)(C)[C@H]1C(O)=C(C2=NS(=O)(=O)c3c(CNS(=O)(=O)C4CC4)cccc32)C(=O)N1Cc1ccc(F)cc1 | 102 to 105 °C |
| COc1ccc(-c2cccc3c2S(=O)(=O)N=C3C2=C(O)[C@H](C(C)(C)C)N(Cc3ccc(F)cc3)C2=O)cn1 | 185 to 190 °C |
| CC(C)(C)[C@H]1C(O)=C(C2=NS(=O)(=O)c3c(CNCC(N)=O)cccc32)C(=O)N1Cc1ccc(F)cc1 | 118 to 124 °C |
| CNC(=O)NCc1cccc2c1S(=O)(=O)N=C2C1=C(O)[C@H](C(C)(C)C)N(Cc2ccc(F)cc2)C1=O | > 250 °C |
| CC(C)(C)[C@H]1C(O)=C(C2=NS(=O)(=O)c3ccccc32)C(=O)N1Cc1ccc(F)c(C#N)c1 | 105 to 112 °C |
| CN(Cc1cccc2c1S(=O)(=O)N=C2C1=C(O)[C@H](C(C)(C)C)N(Cc2ccc(F)cc2)C1=O)S(=O)(=O)N1CCNCC1.O=C(O)C(F)(F)F | 113 to 128 °C |
| CC(C)(C)[C@H]1C(O)=C(C2=NS(=O)(=O)c3c2ccc2ccccc32)C(=O)N1Cc1ccc(F)cc1 | 205 °C (dec.) |
| CC(C)(C)[C@H]1C(O)=C(C2=NS(=O)(=O)c3c(CNS(C)(=O)=O)cccc32)C(=O)N1Cc1ccc(F)c(Br)c1 | 138 to 159 °C |
| O=S1(=O)N=C(c2nc(Cc3ccc(F)cc3)c3ccccc3c2O)c2cccc(N3CCOCC3)c21 | 259 to 261 °C |
| CC(C)(C)[C@H]1C(O)=C(C2=NS(=O)(=O)c3ccccc32)C(=O)N1Cc1ccc(F)c(C2CC2)c1 | 71 to 85 °C |
| COc1cc(CN2C(=O)C(C3=NS(=O)(=O)c4ccccc43)=C(O)[C@@H]2C(C)(C)C)ccc1F | 92 to 104 °C |
| Cc1cc(CN2C(=O)C(C3=NS(=O)(=O)c4c(CNS(=O)(=O)N5CCC(S(C)(=O)=O)C5)cccc43)=C(O)[C@@H]2C(C)(C)C)ccc1F (some centres unmarked) | 124 to 137 °C |
| CC(=O)NC1CCN(S(=O)(=O)NCc2cccc3c2S(=O)(=O)N=C3C2=C(O)[C@H](C(C)(C)C)N(Cc3ccc(F)c(C)c3)C2=O)C1 (some centres unmarked) | 239 to 259 °C |
| CC(=O)Nc1cccc(-c2cccc3c2S(=O)(=O)N=C3C2=C(O)[C@H](C(C)(C)C)N(Cc3ccc(F)cc3)C2=O)c1 | 255 to 260 °C |
| CC(C)(C)[C@H]1C(O)=C(C2=NS(=O)(=O)c3ccccc32)C(=O)N1Cc1ccc(=O)[nH]c1 | 149 to 190 °C |
| CN(C)C(=O)CNc1cccc2c1S(=O)(=O)N=C2C1=C(O)[C@H](C(C)(C)C)N(Cc2ccc(F)cc2)C1=O | 185 to 190 °C |
| CC[C@H](C)[C@H]1C(O)=C(C2=NS(=O)(=O)c3ccccc32)C(=O)N1Cc1ccc(F)cc1 | 155 to 160 °C |
| CCOC(=O)CNc1cccc2c1S(=O)(=O)N=C2C1=C(O)[C@H](C(C)(C)C)N(Cc2ccc(F)cc2)C1=O | 148 to 152 °C |
| CC(C)(C)[C@H]1C(O)=C(C2=NS(=O)(=O)c3ccccc32)C(=O)N1Cc1ccc(F)c(Br)c1 | 114 to 119 °C |

More lines, now with the values ahead:

| melting point | SMILES |
| --- | --- |
| 150 to 154 °C | CNC(=O)CN(Cc1cccc2c1S(=O)(=O)N=C2C1=C(O)[C@H](C(C)(C)C)N(Cc2ccc(F)cc2)C1=O)C(C)=O |
| > 260 °C | CC(C)(C)[C@H]1C(O)=C(C2=NS(=O)(=O)c3c2cccc3-c2cnc(=O)[nH]c2)C(=O)N1Cc1ccc(F)cc1 |
| 205 to 210 °C | CCc1cc(CN2C(=O)C(C3=NS(=O)(=O)c4ccccc43)=C(O)[C@@H]2C(C)(C)C)ccc1F |
| 116 to 126 °C | CN(C)S(=O)(=O)Oc1cccc2c1S(=O)(=O)N=C2C1=C(O)[C@H](C(C)(C)C)N(Cc2ccc(F)cc2)C1=O |
| > 275 °C | O=S1(=O)N=C(c2nc(Cc3ccc(F)cc3)c3ccc(F)cc3c2O)c2ccccc21 |
| 175 to 180 °C | CNC(=O)CNCc1cccc2c1S(=O)(=O)N=C2C1=C(O)[C@H](C(C)(C)C)N(Cc2ccc(F)cc2)C1=O |
| 85 to 91 °C | CC(C)(C)[C@H]1C(O)=C(C2=NS(=O)(=O)c3ccccc32)C(=O)N1Cc1ccc(F)c(C(F)(F)F)c1 |
| > 275 °C | CC(C)(C)[C@H]1C(O)=C(C2=NS(=O)(=O)c3c2cccc3-c2cccnc2)C(=O)N1Cc1ccc(F)cc1 |
| > 250 °C | CC(C)(C)[C@H]1C(O)=C(C2=NS(=O)(=O)c3c2cccc3-c2cn[nH]c2)C(=O)N1Cc1ccc(F)cc1 |
| > 250 °C | CC(C)(C)C1C(O)=C(C2=NS(=O)(=O)c3c(OCC(N)=O)cccc32)C(=O)N1Cc1ccc(F)cc1 (centres unmarked) |
| 200 °C (dec.) | CC(C)C[C@@H]1C(O)=C(C2=NS(=O)(=O)c3ccccc32)C(=O)N1Cc1ccc(F)cc1 |
| 270 to 272 °C | O=S1(=O)N=C(c2nc(NCC3CC3)c3ccccc3c2O)c2ccccc21 |
| 104 to 106 °C | O=C1C(C2=NS(=O)(=O)c3ccccc32)=C(O)[C@H](C2CCCCC2)N1Cc1ccccc1 |
| 137 °C | CN(C)C(=O)COc1cccc2c1S(=O)(=O)N=C2C1=C(O)[C@H](C(C)(C)C)N(Cc2ccc(F)cc2)C1=O |
| 102 to 115 °C | CN(C)S(=O)(=O)NCc1cccc2c1S(=O)(=O)N=C2C1=C(O)[C@H](C(C)(C)C)N(Cc2ccc(F)cc2)C1=O |
| > 250 °C | Cc1cccc2c1S(=O)(=O)N=C2C1=C(O)[C@H](C(C)(C)C)N(Cc2ccc(F)cc2)C1=O |
| 95 to 110 °C | CC(C)[C@H]1C(O)=C(C2=NS(=O)(=O)c3ccccc32)C(=O)N1Cc1ccc(F)cc1 |
| 159 to 173 °C | CC(C)(C)[C@H]1C(O)=C(C2=NS(=O)(=O)c3c(CS(N)(=O)=O)cccc32)C(=O)N1Cc1ccc(F)cc1 |
| > 250 °C | CC(C)(C)[C@H]1C(O)=C(C2=NS(=O)(=O)c3c2cccc3-c2cccc(=O)[nH]2)C(=O)N1Cc1ccc(F)cc1 |
| 96 to 112 °C | CC(C)(C)[C@H]1C(O)=C(C2=NS(=O)(=O)c3c(CNS(=O)(=O)c4ccccc4)cccc32)C(=O)N1Cc1ccc(F)cc1 |
| 228 to 230 °C | Cc1cccc(-c2cccc3c2S(=O)(=O)N=C3c2nc(Cc3ccc(F)cc3)c3ccccc3c2O)c1 |
| 105 to 123 °C | CC(C)(C)[C@H]1C(O)=C(C2=NS(=O)(=O)c3ccccc32)C(=O)N1Cc1cccs1 |
| 206 to 209 °C | CC(C)CCc1nc(C2=NS(=O)(=O)c3ccccc32)c(O)c2ccccc12 |
| 224 to 230 °C | CC(C)(C)[C@H]1C(O)=C(C2=NS(=O)(=O)c3c(CN4CCCS4(=O)=O)cccc32)C(=O)N1Cc1ccc(F)cc1 |
| > 275 °C | O=S1(=O)N=C(c2nc(Cc3ccc(F)cc3)c3ccccc3c2O)c2cccc(-c3cccc(F)c3)c21 |
